From the NIST ThermoML archive (doi:10.1016/j.jct.2018.02.013)

How the values were obtained:
[1] = 101.33 kPa, Liquid; for thermal conductivity: transient hot wire; for mass density: Vibrating tube method; for viscosity: Cone and plate viscometry; for electrical conductivity: Direct current cell with electrodes
[2] = molar heat capacity at constant pressure; settings: 101.33 kPa, Liquid, Small sample (50 mg) DSC

CCCCCC(=O)[O-].CCCCCCCCCCCCCC[P+](CCCCCC)(CCCCCC)CCCCCC [trihexyl(tetradecyl)phosphonium hexanoate]
Settings	electrical conductivity [S/m]	mass density [kg/m3]	molar heat capacity at constant pressure [J/K/mol]	thermal conductivity [W/m/K]	viscosity [mPa·s]
[1], 278.22 K	–	–	–	0.1591	–
[1], 287.73 K	–	–	–	0.1574	–
[1], 293.15 K	–	888.5	–	–	–
[1], 293.2 K	–	–	–	–	435.1
[1], 298.15 K	–	885.5	–	–	–
[1], 298.2 K	–	–	–	–	343.1
[1], 298.98 K	–	–	–	0.156	–
[1], 299.6 K	0.0033	–	–	–	–
[1], 303.15 K	–	882.3	–	–	–
[1], 303.2 K	–	–	–	–	260.7
[1], 303.8 K	0.00454	–	–	–	–
[1], 307.3 K	–	–	–	0.1547	–
[1], 308.1 K	0.00563	–	–	–	–
[1], 308.2 K	–	–	–	–	200
[1], 313.15 K	–	876	–	–	–
[1], 313.2 K	–	–	–	–	155.8
[1], 313.9 K	0.00765	–	–	–	–
[1], 318.15 K	–	–	–	0.1533	–
[1], 318.2 K	–	–	–	–	123.4
[1], 318.4 K	0.00943	–	–	–	–
[1], 323.15 K	–	869.7	–	–	–
[1], 323.2 K	–	–	–	–	99.18
[1], 323.6 K	0.0118	–	–	–	–
[1], 328 K	0.0144	–	–	–	–
[1], 328.2 K	–	–	–	–	80.79
[1], 329.17 K	–	–	–	0.151	–
[1], 333.15 K	–	863.6	–	–	–
[1], 333.2 K	–	–	–	–	66.6
[1], 333.6 K	0.018	–	–	–	–
[1], 336.96 K	–	–	–	0.15	–
[1], 338.2 K	–	–	–	–	55.39
[1], 338.9 K	0.0223	–	–	–	–
[1], 343 K	0.026	–	–	–	–
[1], 343.15 K	–	857.5	–	–	–
[1], 343.2 K	–	–	–	–	46.46
[1], 347.73 K	–	–	–	0.1497	–
[1], 348.2 K	–	–	–	–	39.52
[1], 349.3 K	0.0325	–	–	–	–
[1], 353.15 K	–	851.5	–	–	–
[1], 353.2 K	–	–	–	–	33.7
[1], 357.74 K	–	–	–	0.1476	–
[1], 358.2 K	–	–	–	–	28.97
[1], 363.15 K	–	845.4	–	–	–
[1], 363.2 K	–	–	–	–	25.05
[1], 368.2 K	–	–	–	–	21.82
[2], 293.15 K	–	–	1133.3	–	–
[2], 298.15 K	–	–	1141.7	–	–
[2], 303.15 K	–	–	1149.5	–	–
[2], 308.15 K	–	–	1156.7	–	–
[2], 313.15 K	–	–	1163.9	–	–
[2], 318.15 K	–	–	1169.3	–	–
[2], 323.15 K	–	–	1176.4	–	–
[2], 328.15 K	–	–	1182.4	–	–
[2], 333.15 K	–	–	1189	–	–
[2], 338.15 K	–	–	1196.8	–	–
[2], 343.15 K	–	–	1204	–	–
[2], 348.15 K	–	–	1211.2	–	–
[2], 353.15 K	–	–	1219	–	–
[2], 358.15 K	–	–	1227.4	–	–
[2], 363.15 K	–	–	1235.2	–	–
